Results from patent publication US20120283280A1, “IMIDAZOTETRAZINONE-BASED COMBI-MOLECULES” (priority 2011, published 2012).
“Also recorded” adds a separate entry of the source.

Columns and labels:
[1] = test system: DU145 cells; test: Alkaline comet assay for quantization of DNA damage; assay type: cell-based, human; conditions: DU145 cells, 2 h exposure
Method: Alkaline Comet Assay for Quantization of DNA Damage: A modified alkaline comet assay technique was used for quantization of DNA damage induced in DU145 cells. The cells were exposed to a dose range of the drugs (JDF12, JDF04R, or MTZ) over a period of 2 h and harvested with trypsin-EDTA. The cells were subsequently collected by centrifugation and resuspended in PBS. The resulting cell suspensions were diluted to 3×10^5 cell/mL and mixed with agarose (0.75%) in PBS at 37° C. in a 1:9 dilution. The gels were cast on Gelband strips (Mandel Scientific, Guelph, Ontario, Canada) using gel casting chambers and then immediately placed into a lysis buffer (2.5 M NaCl, 0.1 M tetrasodium EDTA, 10 mM Trisbase, 1% (v/v) N-lauryl sarcosine, 10% (v/v) DMSO, and 1% (v/v) Triton X-100). After being kept overnight at 4° C., the gels were gently rinsed with distilled water and immersed in a second lysis buffer (2.5 M NaCl, 0.1 M tetrasodium EDTA, 10 mM Tris base) containing 1 mg/mL proteinase K for 60 min at 37° C. The cells were subsequently rinsed with distilled water, incubated in alkaline electrophoresis buffer for 30 min at 37° C. and electrophoresed at 400 mA for 20 min. The gels were then rinsed with distilled water and placed into 1 M ammonium acetate for 30 min. The gels were subsequently soaked in 100% ethanol for 2 h, dried overnight and stained with SYBR Gold (1:10000 dilution of stock supplied by Molecular Probes, Eugene, Oreg.) for 20 min. Comets were visualized at 330× magnification and DNA damage was assessed using the tail moment parameter (i.e. the distance between the barycenter of the head and the tail of the comet multiplied by the percentage DNA in the tail region). A minimum of 50 cell comets were analyzed for each sample, using Comet Assay χ v4.2 image analysis software, and the values presented as average tail moments for the entire cell population.
The reactive nature of the latter species makes its detection very difficult. However, the induction of DNA damage (i.e. DNA alkylation) represents evidence of its formation and fleeting presence.

[2] = Dose finding and comparative toxicity study in mice; assay type: in vivo; design: key to Vital Sign, Day 8 / Vital Sign, Day 10 / Vital Sign, Day 16 / Vital Sign, Day 1 / Vital Sign, Day 3 / Vital Sign, Day 6: Normal (i.e. No sign of Toxicity); BCS = 2: BCS (Body Condition Score) = 2 indicates that mice are underconditioned (observable signs include segmentation of the vertebral column, palpability of the dorsal pelvic bones)
Excerpt: The results are further illustrated hereinbelow in Table 4.

[3] = test system: LNCaP-ErbB2; test: Growth inhibition assay (SRB), LNCaP-ErbB2; conditions: 144 h, read-out: IC50 (x ± SD)
Method: Cell Culture: The human prostate cancer cell line DU145 was obtained from the American Type Culture Collection (Manassas, Va.)). The androgen-sensitive prostate cancer cell lines LNCaP-FGC, LNCaP-EGFR and LNCaP-erbB2 (stably transfected with EGFR erbB2 gene respectively) were generous gifts from Dr. Moulay Aloui-Jamali (Jewish General Hospital, Montreal, Quebec, Canada). […] The cultures were maintained in logarithmic growth by harvesting with a trypsin-EDTA solution containing 0.5 mg/mL trypsin and 0.2 mg/mL EDTA and replating before confluence. In all assays, the cells were plated over a period of time ranging from 24-48 h prior to drug administration.

[4] = test system: DU145, LNCaP, LNCaPEGFR, and LNCaPerb2 cell lines; test: Growth inhibition assay (SRB), comparisons over all four cell lines; assay type: cell-based
Excerpt: Each point represents the average of at least two independent experiments run in triplicate.

[5] = test system: DU145 cells; test: Annexin V binding analysis (apoptosis); assay type: cell-based, human; conditions: 25 μM, 48 h exposure
Method: Annexin V binding Analysis: Cells were pre-incubated in 6-well plates until confluence and then exposed to a dose range of each drug over a period 48 h. The cells were subsequently harvested and incubated with annexin V-FITC and propidium iodide (PI) using the apoptosis Detection Kit (BD Bioscience Pharmingen, USA) and the supplier's protocol. Annexin V-FITC and PI binding were analyzed using a Becton-Dickinson FACScan. Data were collected using logarithmic amplification of both the FL1 (FITC) and FL2 (PI) channels. Quadrant analysis of coordinate dot plots was performed with CellQuest software.
Induction of Apoptosis: Annexin V-FITC (FL1-H) and PI (FL2-H) staining (detected by flow cytometry) was used to distinguish viable (PI-/FITC−), early apoptotic (PI-/FITC+), late apoptotic (PI+/FITC+) and necrotic (PI+/FITC−) cells. […] JDF04R, Iressa and MTZ however, induced only barely detectable levels of apoptosis (<10%). The results are indicative that the combined EGFR TK inhibitory and DNA damaging properties of JDF12 can induce more cell apoptosis than observed with a single-function drug (e.g. Iressa and MTZ) alone (FIG. 7a-c).

[6] = CD-1 mice (n = 6), 100 mg/kg once every other day

## O=C(Nc1ccc2ncnc(Nc3cccc(Cl)c3)c2c1)c1ncn2c(=O)n(CCCl)nnc12 [JDF12]
[1]
  DNA damage (tail moment): dose-dependent DNA damage
  DNA damage, fold less than MTZ: 2 fold
[2]; [6]
  Vital Sign, Day 1: Normal
  Vital Sign, Day 3: Normal
  Vital Sign, Day 6: Normal
  Vital Sign, Day 8: Normal
  Vital Sign, Day 10: Normal
  Vital Sign, Day 16: Normal
[2]; CD-1 mice, 100 mg/kg
  toxicity at 100 mg/kg: no signs of toxicity; also recorded: minor toxicity
[2]; male, CD-1, mouse, in vivo, mice, weight loss over a 14-day period, two animals per group, read-out: maximum tolerated dose
  MTD at 14 days: 100 mg/kg
[3]
  IC50: 13.3 ± 2.02 µM
[4]; four cell lines
  increased anti-proliferation potency compared to Iressa (fold): 2-3 fold
  increased anti-proliferation potency compared to MTZ (fold): 10-16 fold
  more potent than equimolar combination of MTZ with Iressa or JDF04R (fold): 1.7 fold
[4]; identical conditions
  more potent than the equieffective 2-drug combination (fold): more than 1.3 fold
[5]
  late apoptosis: significant increase in late apoptosis
